In brackets after ≈: the same amount, converted by molar mass. Entries after “also recorded” stand apart in the source; their conditions may differ.
Assays:
[1] = test system: endothelial cells of human (H-1044 EC p7 naïve); assay: Effect on endothelial cell proliferation (cell count); format: cell-based; conditions: 48 hours, in words
Description: The test was conducted using endothelial cells of human (H-1044 EC p7 naïve). 70,000 cells were grown in each well. After the cells have adhered for 3 hours, the material (paclitaxel or PACLP) was added to the cells. After 48 hours of cell growth the cells were detached by trypsin and counted. The results are set in.

6 cancer cell lines = assay: In vitro anti-tumor activity on 6 cancer cell lines (overall comparison); format: cell-based; conditions: in words
Description: (§1) Cancer cells, HeLa, Caco-2, PC3 prostate, CAPAN, A549, SKBR3 were maintained in a humidified atmosphere at 37° C. and gassed with 5% CO2 in air in air. The cells were incubated with various concentrations of paclitaxel and PACLP. The in vitro cytotoxicity of the drugs was measured by a proliferation assay utilizing tetrazolium dye, MTT ([3-(4,5-[…])-2,5 diphenyl tetrazolium bromid). The experiments were carried out with cells in the exponential growth phase.
(§2) Results of these experiments are presented in graphs 3a-3f, indicating the IC50, (the concentration found to inhibit about fifty percent of the growth of the cancer cell lines).

[2] = test system: hepatocyte cell line HepG2; assay: Toxicity on hepatocyte cell line HepG2 (MTT test); format: cell-based; conditions: for CD50 (cytotoxic concentration leading to reduction of 50% of the cell number compared to untreated cells): HepG2, 72 h, MTT test
Description: PACLP and paclitaxel were evaluated in vitro using hepatocyte cell line HepG2. Cells were cultured in 96 well plates at a cell density of 20000 cell/well and treated with increasing concentrations of both PACLP and paclitaxel (0-1000 μM) for 72 h. Control cells were treated with an absolute ethanol, diluted in the same way as the tested substances. Cytotoxicity was measured using the MTT test. All experiments were carried out in triplicates and each test was repeated three times.
CD50 (the cytotoxic concentration leading to reduction of 50% of the cell number compared to untreated cells) was at concentration of 5 μM and 100 μM, and 500 μM for paclitaxel, PACLP, and the solvent, respectively.

[3] = test system: Caco-2 carcinoma of the colon; assay: MTT proliferation assay, in vitro cytotoxicity; format: cell-based; conditions: Homo sapiens, FIG. 3b, read-out: calculated EC50
Description: as §1, §2

SKBR3 breast carcinoma = assay: MTT proliferation assay, in vitro cytotoxicity; format: cell-based; conditions: Homo sapiens, SK-BR-3, FIG. 3f, read-out: calculated EC50
Description: as §1, §2

A549 lung cancer = assay: MTT proliferation assay, in vitro cytotoxicity; format: cell-based; conditions: Homo sapiens, FIG. 3e, read-out: Calculated EC50
Description: as §1, §2

HeLa cell line = assay: MTT proliferation assay, in vitro cytotoxicity; format: cell-based; conditions: Homo sapiens, FIG. 3a, read-out: calculated EC50
Description: as §1, §2

PC3 prostate carcinoma = assay: MTT proliferation assay, in vitro cytotoxicity; format: cell-based; conditions: FIG. 3c, read-out: calculated EC50
Description: as §1, §2

CAPAN = assay: MTT proliferation assay, in vitro cytotoxicity; format: cell-based; conditions: 72 h, FIG. 3d, read-out: calculated EC50
Description: as §1, §2

Balb/c mice = assay: LD50 test using Balb/c mice; format: in vivo; conditions: 80-140 mg/kg, observed 4 weeks after injection
Description: Balb/c mice were divided into 9 groups, 8 mice in each group (4 males and 4 females). Group one, the control group, were given 50 μl solvent with 150 μL normal saline. Groups 2, 3, 4 and 5 were given 125, 150, 175, 200 mg/kg of PACLP respectively. Groups 6, 7, 8 and 9 were given 80, 100, 120, 140 mg/kg of paclitaxel respectively. Mice were observed 4 weeks after injection. The results are set in FIG. 6. Most of the animals died within the first week after treatment.

## CC(=O)O[C@H]1C(=O)[C@@]2(C)[C@H]([C@H](OC(=O)c3ccccc3)[C@]3(O)C[C@H](OC(=O)[C@H](OC(=O)CCCCC4CCSS4)[C@@H](NC(=O)c4ccccc4)c4ccccc4)C(C)=C1C3(C)C)[C@]1(OC(C)=O)CO[C@@H]1C[C@@H]2O (stereo partly drawn) [PACLP, Paclitaxel-lipoate]
[1]
  cytotoxicity compared to paclitaxel: less cytotoxic
6 cancer cell lines
  anti-tumor activity compared to free paclitaxel: greater anti-tumor activity; also recorded: somewhat more effective than paclitaxel
[2]
  CD50 (cytotoxic concentration leading to reduction of 50% of the cell number compared to untreated cells): 100 µM
[2]; hepatocyte cell line HepG2, in words
  cytotoxicity compared to paclitaxel: less cytotoxic
[3]
  EC50: 1.5 µg/mL (≈ 1.44 µM)
SKBR3 breast carcinoma
  EC50: 2 µg/mL (≈ 1.92 µM)
A549 lung cancer
  EC50: 2.5 µg/mL (≈ 2.4 µM)
HeLa cell line
  EC50: 1.5 µg/mL (≈ 1.44 µM)
PC3 prostate carcinoma
  EC50: 3.5 µg/mL (≈ 3.36 µM)
CAPAN
  EC50: 5 µg/mL (≈ 4.8 µM)

## CC(=O)O[C@H]1C(=O)[C@@]2(C)[C@H]([C@H](OC(=O)c3ccccc3)[C@]3(O)C[C@H](OC(=O)[C@H](O)[C@@H](NC(=O)c4ccccc4)c4ccccc4)C(C)=C1C3(C)C)[C@]1(OC(C)=O)CO[C@@H]1C[C@@H]2O [paclitaxel, reference compound]
[2]
  CD50 (cytotoxic concentration leading to reduction of 50% of the cell number compared to untreated cells): 5 µM
Balb/c mice
  observation before death: swelling and redness before death
[3]
  EC50: 9 µg/mL (≈ 10.5 µM)
SKBR3 breast carcinoma
  EC50: 19 µg/mL (≈ 22.3 µM)
A549 lung cancer
  EC50: 5.5 µg/mL (≈ 6.44 µM)
HeLa cell line
  EC50: 9 µg/mL (≈ 10.5 µM)
PC3 prostate carcinoma
  EC50: 12 µg/mL (≈ 14.1 µM)
CAPAN
  EC50: 11 µg/mL (≈ 12.9 µM)
